In patent US20210113529A1, “MEDICINE FOR PREVENTING OR TREATING OPHTHALMIC DISEASE ASSOCIATED WITH ENHANCED INTRAOCULAR NEOVASCULARIZATION AND/OR INTRAOCULAR VASCULAR PERMEABILITY” (KYOTO UNIVERSITY, priority 2018, published 2021):

Legend:
Body weight in CNV model = type: in vivo, mice; conditions: oral once daily dosing, vs vehicle group
Description: A case in which FA was unable to be performed owing to cloudiness caused by a flaw in the eye produced before the FA evaluation and a case in which CNV was connected at the time of the evaluation of the area of CNV were excluded from analysis, and the above-mentioned results were each calculated as a mean of 11 or 12 mice in each group. […] A case in which FA was unable to be performed owing to cloudiness caused by a flaw in the eye produced before the FA evaluation and a case in which CNV was connected at the time of the evaluation of the area of CNV were excluded from analysis, and the above-mentioned results were each calculated as a mean of 12 mice in each group.

[1] = test system: lymphocytes in the peripheral blood; assay: Lymphocyte count in peripheral blood, C57BL/6J strain mice; type: in vivo; conditions: C57BL/6J mice, 24 hours from final administration
Method: Seven-week-old mice (Japan SLC, Inc., C57BL/6J strain) were repeatedly orally administered Compound 1 suspended in a vehicle (0.5% MC solution) at a dose of 0.003 mg/kg, 0.01 mg/kg, 0.03 mg/kg, 0.1 mg/kg, 0.3 mg/kg, or 1 mg/kg (in terms of free form) once daily for 14 days in the same manner as in Example 1. A control was administered only the vehicle (vehicle group). Experiments were performed using 5 mice in each group. At 24 hours from the final administration, blood was collected from the abdominal vena cava under isoflurane anesthesia using a heparin-treated syringe, and was mixed with ethylenediaminetetraacetic acid dipotassium salt (EDTA.2K) (1 mg). The lymphocyte count in the collected blood was measured using XT-2000iv (Sysmex Corporation).

[2] = test system: laser-induced choroidal neovascularization (CNV) model; assay: Laser-induced CNV model: fluorescein angiography (FA) grade; type: in vivo, mice; conditions: 0.03 mg/kg or 0.3 mg/kg orally once daily, each group; Day 14 after laser irradiation
Method: A Mydrin-P ophthalmic solution (Santen Pharmaceutical Co., Ltd., Mydrin is a trademark) was dropped into the right eye of 8-week-old mice (Japan SLC, Inc., C56BL/6J strain) to cause mydriasis. A solution obtained by diluting a 7:1 mixed anesthetic solution of ketamine and xylazine 10-fold with physiological saline was administered at 10 mL/kg into the femoral muscle. After that, a 0.1% Hyalein (trademark) ophthalmic solution (Santen Pharmaceutical Co., Ltd.) was dropped into the eye so as to prevent the eyeball from drying. […]
Sampling was performed on the 14th day after the laser irradiation. The mice were anesthetized with 10 mL/kg of a solution obtained by diluting a 7:1 mixed anesthetic solution of ketamine and xylazine 10-fold with physiological saline, and then 0.1 mL of a 10-fold dilution of fluorescein (Alcon Japan Ltd.) was administered into the tail vein of the mice, followed by fluorescence fundus photography using Micron 4 (Phoenix Research Laboratories, Inc. Pleasanton, Calif., USA).
In FIG. 1 (a), Day 0 indicates images taken on the day of the laser irradiation, and Day 14 indicates images taken on the 14th day. In addition, for the image of each group on Day 14, an FA grade was determined for each laser irradiation site in accordance with grade criteria shown in Table 1 to evaluate the leakage of a fluorescent dye from a neovascularization site. […]

SMILES: C[C@H](Oc1ccc(-c2nc(-c3ccc4[nH]cnc4c3)no2)cc1C(F)(F)F)C(F)(F)F.Cl [Compound 1, 5-{5-[3-(trifluoromethyl)-4-{[(2S)-1,1,1-trifluoropropan-2-yl]oxy}phenyl]-1,2,4-oxadiazol-3-yl}-1H-benzimidazole monohydrochloride]
- change in body weight between the groups before sampling (Body weight in CNV model): a significant change in body weight between the groups before sampling was not found
- lymphocytes in the peripheral blood ([1]; 0.03 mg/kg orally once daily for 14 days): not found to have a significant action
- lymphocytes in the peripheral blood ([1]; 0.1 mg/kg or more orally once daily for 14 days): significantly decreased lymphocytes in the peripheral blood
- FA grade as compared to the vehicle group [2]: significantly lowered
